Data: PMC2063630 (The Journal of Cell Biology, 2007)
Like-named read-outs stand apart in the source and are kept apart here. Square brackets hold non-standard residues; d marks the D form. Ends that are not written are not given here. * marks the point of attachment. Biotin = O=C1N[C@H]2[C@H](CS[C@H]2CCCCC(=O)*)N1; pS = N[C@@H](COP(=O)(O)O)C(=O)O

What was measured:
p38 and JNK isoforms = settings: high concentrations; ref Kuma et al., 2005; cited from earlier work
[1] = tested on: endogenous WNK1 in 293 cells; format: cell-based; settings: for activation of WNK1 by other stimuli, in words: serum-deprived 16 h, stimulus 30 min
[2] = tested on: WNK1 localization in 293 cells; assay: WNK1 localization in 293 cells by confocal and live-cell imaging, FRAP; format: cell-based; settings: for time to redistribution of GFP-WNK1 to intracellular vesicles / time to reversal after removal (WNK1 diffuse in cytosol): live 293 cells; for time to redistribution of GFP-WNK1 to intracellular vesicles: 0.2 M sorbitol or 0.2 M NaCl; for time to reversal after removal (WNK1 diffuse in cytosol): removal of sorbitol or NaCl; for FRAP: time to redistribution to photobleached area: sorbitol- or NaCl-treated 293 cells
ERK1/2 = assay: ERK activation in 293 cells; format: cell-based
p38 and JNK = assay: p38 / JNK activation in 293 cells; format: cell-based; settings: 30 min
[3] = tested on: SPAK and OSR1 T-loop and S-motif; assay: SPAK/OSR1 T-loop and S-motif phosphorylation; format: cell-based; settings: sorbitol, HeLa and 293 cells
[4] = tested on: endogenous SPAK and OSR1 in 293 cells; assay: SPAK/OSR1 activity in 293 cells; format: cell-based; settings: sorbitol, CATCHtide (Fig. S1)
[5] = tested on: endogenous WNK1 in 293 cells; format: cell-based, human; settings: 0.5 M sorbitol
[6] = tested on: endogenous SPAK and OSR1 in HeLa cells; assay: SPAK/OSR1 activity in HeLa cells; format: cell-based; settings: 0.5 M sorbitol, 30 min, CATCHtide
[7] = biological target: OSR1 CCT domain (residues 429–527) (Homo sapiens, UniProt O95747); assay: Surface plasmon resonance; format: binding; settings: BiaCore, OSR1 CCT domain 6.8–340 nM; vs nonphosphorylated peptide
WNK1 Ser382 [8] = assay: WNK1 Ser382 phosphorylation, forms expressed in E. coli; format: biochemical
[9] = tested on: OSR1[D164A] phosphorylation by WNK1[1–661]; assay: Activity of WNK1[1–661] forms expressed in E. coli; format: biochemical; settings: mean of duplicate samples
WNK1 Ser382 [10] = assay: WNK1 Ser382 phosphorylation, forms expressed in 293 cells; format: cell-based; settings: 0.5 M sorbitol, 30 min, phospho-Ser382 antibody
[11] = tested on: OSR1[D164A] phosphorylation by WNK1[1–667]; assay: Activity of GST-WNK1[1–667] forms expressed in 293 cells; format: cell-based
[12] = biological target: OSR1 CCT domain (residues 429-527) (human, UniProt O95747 429-527); assay: SPR
[13] = PD184352 2 μM 30 min preincubation, 0.5 M sorbitol 30 min
[14] = U0126, 0.5 M sorbitol, not depicted

Sequence of OSR1 CCT domain (residues 429–527) (O95747 429-527): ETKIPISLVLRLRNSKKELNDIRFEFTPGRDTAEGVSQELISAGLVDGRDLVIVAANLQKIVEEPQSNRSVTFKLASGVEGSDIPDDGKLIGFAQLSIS
Sequence of OSR1 CCT domain (residues 429-527) (O95747 429-527): as above

For Cc1ccc(-n2nc(C(C)(C)C)cc2NC(=O)Nc2ccc(OCCN3CCOCC3)c3ccccc23)cc1 [BIRB0796], which “inhibition of p38 and JNK isoforms, in words” value (p38 and JNK isoforms) is on record?
Its value is “inhibit all p38 and JNK isoforms”.

Which “activation of WNK1 by other stimuli, in words” value [1] does the source give for OO [H2O2] here?
The value was “failed to induce activation of WNK1”.

For [Cl-].[K+] [KCl], which “fold increase of WNK1 activity” value ([1]; 0.5 M KCl, 30 min) is on record?
Its value is “threefold”.

For [Cl-].[Na+] [NaCl], which “time to redistribution of GFP-WNK1 to intracellular vesicles” value [2] is on record?
Its value is ≤ 0.5 min.

What about the “time to reversal after removal (WNK1 diffuse in cytosol)” value [2] of the same molecule?
Its value is ≤ 2 min.

And the “FRAP: time to redistribution to photobleached area” value [2]?
Its value is ≤ 2 min.

And the “concentration at which WNK1 activation was detectable” value ([1]; NaCl, 30 min)?
The value was 50 mM.

And the “concentration for maximal WNK1 activation” value ([1]; NaCl, 30 min)?
The value was 0.15 M.

With O=C(NOCC1CC1)c1ccc(F)c(F)c1Nc1ccc(I)cc1Cl [PD184352] as the molecule, how does the “effect on ERK activation by sorbitol” value (ERK1/2; [13]) read?
The value was “abolished ERK activation by sorbitol”.

What about the “effect on WNK1 activation by sorbitol” value [1, 13] of the same molecule?
Its value is “without affecting WNK1 activation”.

With C[S+]([O-])c1ccc(-c2nc(-c3ccncc3)c(-c3ccc(F)cc3)[nH]2)cc1 (centres unmarked) [SB203580] as the molecule, how does the “effect on WNK1 activation by sorbitol” value [1] read?
Its value is “failed to prevent activation of WNK1 by sorbitol”.

For CCCCCCCCCCCCCC(=O)O[C@@H]1[C@@H](C)[C@@]2(O)[C@@H](C=C(CO)C[C@]3(O)C(=O)C(C)=C[C@@H]23)[C@@H]2C(C)(C)[C@]12OC(C)=O [TPA], which “activation of WNK1 by other stimuli, in words” value [1] is on record?
The value was “failed to induce activation of WNK1”.

Which “effect on ERK activation by sorbitol” value (ERK1/2; [14]) does the source give for N#CC(=C(/N)Sc1ccccc1N)/C(C#N)=C(/N)Sc1ccccc1N [U0126] here?
Its value is “abolished ERK activation by sorbitol”.

What about the “effect on WNK1 activation by sorbitol” value [1, 14] of the same molecule?
Its value is “without affecting WNK1 activation”.

With COc1ccc(C[C@H]2NC[C@H](O)[C@H]2OC(C)=O)cc1 [anisomycin] as the molecule, how does the “p38 and JNK stimulation, in words” value (p38 and JNK; anisomycin 10 μg/ml) read?
The value was “potently stimulates p38 and JNK”.

And the “activation of WNK1 by anisomycin, in words” value ([1]; anisomycin 10 μg/ml, 30 min)?
The value was “failed to activate WNK1”.

Which “activation of WNK1 by other stimuli, in words” value [1] does the source give for CCCCNc1cc(C(=O)O)cc(S(N)(=O)=O)c1Oc1ccccc1 [bumetanide] here?
The value was “failed to induce activation of WNK1”.

For COC[C@@H]([C@H](O)[C@H](O)C(=O)NCC[C@H](C)c1nc(/C=C/C[C@@H]2O[C@]3(C[C@@H](O)[C@@H]2C)O[C@H]([C@H](C[C@H](O)[C@H](C)[C@H](O)[C@H](C)/C=C(C)/C(C)=C/C=C/C(C)=C\C#N)OC)[C@H](OP(=O)(O)O)C3(C)C)co1)N(C)C [calyculin A], which “activation of WNK1 by other stimuli, in words” value [1] is on record?
Its value is “failed to induce activation of WNK1”.

With OC[C@@H](O)[C@@H](O)[C@H](O)[C@@H](O)CO [sorbitol] as the molecule, how does the “SPAK/OSR1 T-loop and S-motif phosphorylation, in words” value [3] read?
The value was “markedly stimulated the phosphorylation of endogenously expressed SPAK and OSR1 at both the T-loop and S-motif”.

What about the “fold increase of SPAK/OSR1 activity” value [4] of the same molecule?
The value was “approximately fourfold”.

What about the “ERK1/2 stimulation, in words” value (ERK1/2; 0.5 M sorbitol, 30 min) of the same molecule?
The value was “stimulated the extracellular signal–regulated kinase (ERK) 1/2”.

And the “WNK1 phosphorylation sites stimulated, in words” value ([5]; 32P-labelled 293 cells, 20 min)?
The value was “Phosphorylation of two sites, Ser1261 and Ser 2372, was stimulated”.

And the “WNK1 phosphorylation sites enhanced, in words” value ([5]; unlabeled 293 cells, LC-MS, 30 min)?
Its value is “five residues (Ser15, Ser167, Ser382, Ser1261, and Thr1848) whose phosphorylation was markedly enhanced”.

And the “WNK1 localization, in words” value ([2]; 0.2 M sorbitol, 1 min)?
The value was “WNK1 was strikingly observed on discrete intracellular structures”.

And the “time to redistribution of GFP-WNK1 to intracellular vesicles” value [2]?
Its value is ≤ 0.5 min.

And the “time to reversal after removal (WNK1 diffuse in cytosol)” value [2]?
Its value is ≤ 2 min.

What about the “FRAP: time to redistribution to photobleached area” value [2] of the same molecule?
The value was ≤ 2 min.

And the “fold increase of SPAK/OSR1 activity” value [6]?
The value was “approximately fivefold”.

And the “p38 and JNK stimulation, in words” value (p38 and JNK; 0.5 M sorbitol)?
The value was “stimulated the extracellular signal–regulated kinase (ERK) 1/2, p38, and JNK protein kinases”.

And the “fold increase of WNK1 activity” value ([1]; 0.1–1.0 M sorbitol, 30 min, dose-dependent)?
The value was “fivefold”.

What about the “duration of sustained WNK1 activation” value ([1]; 0.5 M sorbitol) of the same molecule?
The value was 80 min.

And the “time at which WNK1 activation was detected” value ([1]; 0.5 M sorbitol)?
The value was ≤ 0.5 min.

What about the “time to maximal WNK1 activation” value ([1]; 0.5 M sorbitol) of the same molecule?
The value was 1 to 2 min.

And the “fold increase of WNK1 activity (OSR1 phosphorylation rate)” value ([1]; 0.5 M sorbitol, 30 min, vs nontreated cells, duplicate samples)?
Its value is “approximately threefold”.

Which “binding to OSR1 CCT domain, in words” value [7] does the source give for “AGRRFIVpSPVPESRL (AGRRFIV[pS]PVPESRL; also: biotin label, attachment end not given here) [phosphorylated Ser1261 peptide]” here?
The value was “bound to OSR1 with a markedly lower affinity”.

With IGF-1: IGF-1 as the molecule, how does the “activation of WNK1 by other stimuli, in words” value [1] read?
Its value is “failed to induce activation of WNK1”.

For TNFα, which “activation of WNK1 by other stimuli, in words” value [1] is on record?
The value was “failed to induce activation of WNK1”.

Which “Ser382 phosphorylation after MgATP, in words” value (WNK1 Ser382 [8]; 0.1 mM ATP, 10 mM Mg, 1 h) does the source give for “WNK1[1–661]: wild-type WNK1 fragment expressed in E. coli” here?
The value was “did not further increase phosphorylation of Ser382”.

What about the “Ser382 phosphorylation, in words” value (WNK1 Ser382 [8]; expressed in E. coli) of the same molecule?
Its value is “heavily phosphorylated at Ser382”.

What about the specific activity [9] of the same molecule?
Its specific activity is 5.2 U/mg.

What does the source list for “WNK1[1–667]: N-terminal fragment of WNK1, GST fusion, expressed in 293 cells”?
Ser382 phosphorylation induced by sorbitol, in words (WNK1 Ser382 [10]): Sorbitol markedly increased recognition of WNK1[1–667] by a phospho-Ser382 antibody; specific activity ([11]; isolated from sorbitol-stimulated 293 cells): ~0.13 U/mg; specific activity ([11]; wild-type, isolated from untreated 293 cells): 0.13 U/mg

With “WNK1[S382A, 1–661]: mutant expressed in E. coli” as the molecule, how does the specific activity [9] read?
Its specific activity is 0.15 U/mg.

Which specific activity [9] does the source give for “WNK1[S382D, 1–661]: mutant expressed in E. coli” here?
The specific activity was 0.26 U/mg.

With “WNK1[S382E, 1–661]: mutant expressed in E. coli” as the molecule, how does the specific activity [9] read?
The specific activity was 0.66 U/mg.

With “WNK1[S382E, 1–667]: Ser382 to Glu mutant of GST-WNK1[1–667]” as the molecule, how does the “effect of sorbitol on activity of mutant, in words” value ([11]; 0.5 M sorbitol, 30 min) read?
The value was “not enhanced by sorbitol stimulation”.

What about the “basal activity, fold over wild-type WNK1[1–667] from untreated cells” value ([11]; untreated 293 cells) of the same molecule?
Its value is “over eightfold”.

For pervanadate, which “activation of WNK1 by other stimuli, in words” value [1] is on record?
The value was “failed to induce activation of WNK1”.

B1: biotinylated peptide encompassing Ser1261 of WNK1 (biotin-AGRRFIVSPVPESRL) (peptide)
peptide: Biotin-AGRRFIVSPVPESRL
With B1 as the molecule, how does the Kd [12] read?
Its Kd is ~40 nM.
